Experimental data taken from patent publication US8106090B2, “1-amino linked compounds” (Eli Lilly and Company, priority 2005, dated 2012).
Structures can show the parent of a compound that is named as a salt.

Target: T1, human recombinant DPIV enzyme (Homo sapiens, UniProt P27487)
T1 construct: Secreted DPIV (lacking membrane anchor) was enriched from HEK293 cell culture supernatant; made in house; host or cells: HEK293
Test: Human recombinant DPIV activity assay (fluorometric end point, Gly-Pro-AMC substrate)
Assay type: biochemical
Conditions: enriched human recombinant DPIV, Gly-Pro-AMC 0.02 mM, 12 points concentration response curve, duplicates
Description: Human Recombinant DPIV Activity Assay
The DPIV assay used was a fluorometric end point assay (excitation 355 nm; emission 460 nm) using enriched human recombinant DPIV enzyme (21.3 μU/μl), and Gly-Pro-AMC (Bachem I-1225) as substrate (0.02 mM). Secreted DPIV (lacking membrane anchor) was enriched from HEK293 cell culture supernatant by ultrafiltration, ultra-centrifugation, and size-exclusion chromatography. IC50 values of the compounds were calculated based on a 12 points concentration response curve. Each concentration was measured as duplicates. The assay was validated by plate variability and conformity, inter-plate variability, signal window, and minimum significant ration of IC50. A MSR was calculated based on a test/retest analysis and a retrospective analysis. The MSR value is 1.8.

T1 sequence (P27487 29-766 limits assumed): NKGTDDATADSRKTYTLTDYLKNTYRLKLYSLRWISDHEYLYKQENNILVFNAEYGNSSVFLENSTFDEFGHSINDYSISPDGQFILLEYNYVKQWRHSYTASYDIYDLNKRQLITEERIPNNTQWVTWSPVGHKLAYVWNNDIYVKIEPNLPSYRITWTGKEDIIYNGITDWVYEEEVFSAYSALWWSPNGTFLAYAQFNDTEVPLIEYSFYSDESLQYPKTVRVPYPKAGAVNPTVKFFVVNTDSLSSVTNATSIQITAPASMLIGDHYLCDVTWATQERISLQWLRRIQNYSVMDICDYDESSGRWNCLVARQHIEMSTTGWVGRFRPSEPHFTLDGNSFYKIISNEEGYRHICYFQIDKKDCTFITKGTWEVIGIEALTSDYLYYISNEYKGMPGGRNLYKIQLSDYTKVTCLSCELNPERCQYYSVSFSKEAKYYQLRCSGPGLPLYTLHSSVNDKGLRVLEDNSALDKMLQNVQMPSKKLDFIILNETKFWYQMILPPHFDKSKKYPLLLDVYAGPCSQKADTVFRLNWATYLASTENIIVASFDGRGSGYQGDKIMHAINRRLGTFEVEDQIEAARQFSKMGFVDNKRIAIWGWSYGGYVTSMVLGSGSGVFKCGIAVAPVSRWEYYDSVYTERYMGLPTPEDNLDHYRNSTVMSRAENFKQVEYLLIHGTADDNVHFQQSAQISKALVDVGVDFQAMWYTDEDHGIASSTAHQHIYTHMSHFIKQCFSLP

`N[C@H](Cc1ccccc1)[C@@H](O)Cn1cccn1` [Example 13, (2S,3R)-3-Amino-4-phenyl-1-pyrazol-1-yl-butan-2-ol Hydrochloride] gave an IC50 of 2.99 µM.

Molecule `N[C@H](Cc1ccccc1)[C@@H](O)CN1CCCC(c2ccccc2)C1` (stereo partly drawn) [Example 6, (2S,3R)-3-Amino-4-phenyl-1-([3R,S]-3-phenyl-piperidin-1-yl)-butan-2-ol Dihydrochloride] has an IC50 of 2.73 µM.

`CN(C[C@H](O)[C@H](N)Cc1ccccc1)S(C)(=O)=O` [Example 21, N-[(2S,3R)-3-Amino-2-hydroxy-4-phenyl-butyl]-N-methyl-methanesulfonamide Hydrochloride] showed an IC50 of 9.76 µM.

For `N[C@H](Cc1ccccc1)[C@@H](O)Cn1cnc2ccccc21` [Example 15, (2S,3R)-3-Amino-1-benzimidazol-1-yl-4-phenyl-butan-2-ol Hydrochloride], the IC50 was 4.33 µM.
